Assay results from patent US20100040666A1, “Method for Control of Drug Elution Rate and Composition for Coating of Drug-Eluting Stent” (priority 2005, published 2010).

Experiment: Elution test of compound represented by structural formula (2) from poly (MPC-co-BMA)
Format: physicochemical
Settings: thin plate of stainless steel coated sequentially with compositions of Examples 1 to 3, immersed in distilled water
Description: Test 2: Elution Test of Compound Represented by Structural Formula (2)
The elution test of the compound represented by the structural formula (2) from poly (MPC-co-BMA) was conducted. The test sample was prepared by coating sequentially the compositions from Examples 1 to 3 to a thin plate of stainless steel. The prepared sample was immersed in distilled water, and then the amount of the eluted compound represented by the structural formula (2) was measured with time.
It can be verified that the compound represented by the structural formula (2) is eluted for about 100 hours. In addition, even after 100 hours, the compound represented by the structural formula (2) is eluted gradually for 400 hours, and thus it can be verified that controlled release is intended.

time for which the compound is eluted (cumulative eluted amount, FIG. 3): about 100 hours
time for which the compound is eluted gradually, even after 100 hours (controlled release): 400 h
SMILES: CCOc1cccc(C(CC)n2nc(C(=O)O)c3c2-c2ccc(OCc4cncnc4)cc2CC3)c1 (centres unmarked) [structural formula (2)]
